Patent publication US10370410B2, “Cancer cell-targeting peptide and use thereof” (KYUNGPOOK NATIONAL UNIVERSITY INDUSTRY-ACADEMIC COOPERATION …, priority 2015, dated 2019)
Ends that are not written are not given here. FPI774 = near-infrared fluorescent reagent (label)

How the values were obtained:
[1] = system: K-ras transgenic tumor cells; experiment: Phage library screening and sequence analysis of phage clones; type: in vivo, mouse; conditions: phage clones from 4th and 5th screening rounds, sequence analysis
Protocol: To screen peptides having specificity to K-ras transgenic tumor cells in the T7 CX7C phage library prepared above, a random peptide phage library (1×10^11 pfu) were injected into a K-ras^LA2 transgenic mouse via the tail vein.
After 15 minutes, the tumor was excised from the lungs of the K-ras^LA2 transgenic mouse, finely ground, and added to a DMEM medium to prepare a cell suspension, which was then passed through a70-M filter (DAKO, Carpinteria, Calif., USA). The phages bound to the tumor were reacted with 1% NP-40 for 10 minutes for separation. Afterwards, the separated phages were recovered by treatment with cultured BL21 host bacteria. The phages that were recovered by the BL21 host bacteria and amplified were injected into a K-ras^LA2 transgenic mouse via the tail vein. Such a round of the screening of phage library was repeated five times. […] At the final 5th round, the multiplicative […] of the phage clones increased 162 times the first round. Afterwards, from the 4th round and the 5th rounds, a total of 49 clones were randomly selected for the sequencing.
DNA inserts of each of the 49 phage clones collected in Example 2-2 were sequenced by an automated DNA sequencer (Genotech Inc., Daegeon and SolGent Inc. Daegu) using a 96 pill primer (New England Biolabs). To find amino acid motifs shared between the common sequences or peptides, amino acid sequences deduced based on the nucleotide sequences were was aligned by using the Clustal W program. To find proteins having significant homology, NCBI BLAST search was performed with respect to peptide sequences. As a result of the sequence analysis of the peptides, four phage clones with high affinity for the K-ras transgenic tumor cells were confirmed, and the peptide sequences thereof were as follows: CKSRKDGAC (4R-3, SEQ ID NO: 1), CMPKRPSSC (4R-16, SEQ ID NO: 2), CRGTAEG (4R-21, SEQ ID NO: 3), and CRQTKN (5R-7, SEQ ID NO: 4).

[2] = system: tumors of the K-ras^LA2 transgenic mouse; experiment: Near-infrared fluorescence imaging of FPI774-labeled tumor-targeting peptides; type: in vivo; conditions: FPI774-labeled peptide, tail vein, 4 hours, FIG. 5
Protocol: To validate whether the peptides prepared in <Example 2-5> in the present invention were specifically transferred to the tumor cells of the K-ras^LA2 transgenic mouse, a control peptide and a peptide labeled with FPI774 and having SEQ ID NO: 1 to SEQ ID NO: 4 were injected into the K-ras^LA2 transgenic mouse and a normal mouse via the tail vein of each mouse. After 4 hours, the mice were sacrificed, and each organ thereof was extracted for the near-infrared fluorescence imaging using the eXplore Optix system (ART Inc, Montreal, Canada).

[3] = system: tumors of K-ras^LA2 transgenic mouse; experiment: Target transfer capability of FPI774-CRQTKN peptide (near-infrared organ imaging); type: in vivo; conditions: tail vein, 4 hours; for fluorescence of FPI774 in the lungs: FIG. 6A
Protocol: To confirm the binding capability of the CRQTKN peptide (SEQ ID NO: 4) to the K-ras tumors, the FPI774-CRQTKN (SEQ ID NO: 13) peptide, which is a peptide labeled with a near-infrared fluorescent reagent FPI774, and a control peptide were administered into a K-ras^LA2 transgenic mouse and a normal mouse via the tail vein of each mouse.
After 4 hours, the mice were scarified, and each organ thereof was extracted for the near-infrared fluorescence imaging using the eXplore Optix system (ART Inc, Montreal, Canada).

[4] = system: tumor of K-ras^LA2 transgenic mouse; experiment: Binding capability of phage clones to tumor (phage titer); type: in vivo; conditions: phage clone expressing the peptide administered into K-ras^LA2 transgenic mouse; FIG. 4B
Protocol: The phage clones that express each of the peptides were administered into the K-ras^LA2 transgenic mouse, and bound to tumor, and a titer of the phage clones was measured.

Substance: CRQTKN: tumor-targeting peptide CRQTKN identified by phage library screening (5R-7 peptide)
- affinity of phage clones for the K-ras transgenic tumor cells [1]: high affinity
- transfer to the tumors (near-infrared fluorescence) [2]: most strongly transferred

Substance: FPI774-CRQTKN: CRQTKN peptide labeled with a near-infrared fluorescent reagent FPI774
- fluorescence of FPI774 in the lungs ([3]; K-ras^LA2 transgenic mouse): strongly expressed
- fluorescence of FPI774 in the lungs ([3]; normal mouse): not expressed
- fluorescence of FPI774 in organs other than the lungs (kidney and liver) ([3]; FIG. 6B): not observed in general

Substance: CMPKRPSSC (4R-16 peptide) [tumor-targeting peptide … identified by phage library screening]
- affinity of phage clones for the K-ras transgenic tumor cells [1]: high affinity

Substance: CRGTAEG (4R-21 peptide) [tumor-targeting peptide CRGTAEG identified by phage library screening]
- affinity of phage clones for the K-ras transgenic tumor cells [1]: high affinity

Substance: CKSRKDGAC (4R-3 peptide) [tumor-targeting peptide … identified by phage library screening; tested as phage clone and as FPI774-labeled peptide]
- affinity of phage clones for the K-ras transgenic tumor cells [1]: high affinity
- binding capability of phage clone to the tumor (titer) [4]: greatest binding capability
